Laboratory results from patent US8956824B2, “Methods for identifying allosteric modulators of ship polypeptides” (British Columbia Cancer Agency Branch, priority 2006, dated 2015).

Target: T1, wild-type SHIP1 enzyme (Mus musculus, UniProt Q9ES52)
T1 construct: Full length, wild-type SHIP1 enzyme (wt); made in house; host or cells: 293T cells, transient transfection with pME18S-His-SHIP
T1 sequence (Q9ES52 1-1191): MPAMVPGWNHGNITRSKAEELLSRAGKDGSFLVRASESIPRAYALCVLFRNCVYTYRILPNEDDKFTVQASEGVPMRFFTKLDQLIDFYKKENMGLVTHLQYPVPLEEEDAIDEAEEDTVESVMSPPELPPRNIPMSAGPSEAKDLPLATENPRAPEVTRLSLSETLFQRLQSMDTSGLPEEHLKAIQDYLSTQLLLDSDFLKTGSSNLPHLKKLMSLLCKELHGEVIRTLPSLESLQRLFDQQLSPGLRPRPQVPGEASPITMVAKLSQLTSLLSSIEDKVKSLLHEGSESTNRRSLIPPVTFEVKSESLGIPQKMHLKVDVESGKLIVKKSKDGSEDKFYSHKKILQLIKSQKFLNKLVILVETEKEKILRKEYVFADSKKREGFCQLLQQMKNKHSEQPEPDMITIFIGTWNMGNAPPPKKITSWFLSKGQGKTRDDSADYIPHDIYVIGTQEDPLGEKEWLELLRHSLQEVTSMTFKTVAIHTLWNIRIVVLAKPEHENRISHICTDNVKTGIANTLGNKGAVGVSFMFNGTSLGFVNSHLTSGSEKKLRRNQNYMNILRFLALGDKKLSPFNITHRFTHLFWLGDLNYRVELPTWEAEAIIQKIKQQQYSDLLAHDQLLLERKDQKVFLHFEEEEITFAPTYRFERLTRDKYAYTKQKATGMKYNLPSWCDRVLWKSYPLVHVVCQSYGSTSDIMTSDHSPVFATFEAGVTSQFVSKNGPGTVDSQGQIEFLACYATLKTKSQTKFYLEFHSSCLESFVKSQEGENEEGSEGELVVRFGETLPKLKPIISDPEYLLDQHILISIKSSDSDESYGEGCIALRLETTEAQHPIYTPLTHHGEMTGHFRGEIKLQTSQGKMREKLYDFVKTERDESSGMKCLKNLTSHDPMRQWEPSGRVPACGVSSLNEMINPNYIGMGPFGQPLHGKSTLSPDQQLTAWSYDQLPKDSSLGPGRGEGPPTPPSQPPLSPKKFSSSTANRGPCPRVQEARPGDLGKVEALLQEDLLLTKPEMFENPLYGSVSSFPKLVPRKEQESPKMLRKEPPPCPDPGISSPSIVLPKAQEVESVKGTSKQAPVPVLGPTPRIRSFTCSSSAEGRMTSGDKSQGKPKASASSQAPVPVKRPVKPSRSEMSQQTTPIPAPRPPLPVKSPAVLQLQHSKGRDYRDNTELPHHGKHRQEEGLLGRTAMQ
Assay: Scintillation proximity assay, wild-type SHIP1
Assay type: binding
Conditions: 5 μCi
Method: Scintillation Proximity Assays AQX-MN100 was radiolabeled with tritium by GE Healthcare (Piscataway, N.J.) to a specific activity of 42 Ci/mmole. Copper chelate (His-Tag) YSi YSi SPA Scintillation Beads (GE Healthcare ,Piscataway, NJ) were diluted in 0.25% BSA/TBS to 1.5 mg/mL and recombinant, His6-tagged protein added at the indicated concentrations: wild-type (1 pM), ΔC2 SHIP enzyme (1 pM) or C2 domain (10 nM). Protein was allowed to bind 1 h at 23° C., and 250 μg of beads were aliquoted per well of a 96-well plate. 5 μCi of [3H]-AQX-MN100 was added per well, the plate gently agitated for 30 min and the amount of bead associated radioactivity quantified by counting in a Wallac BETAPLATE™ plate scintillation counter. Results are representative of 3 independent experiments.

binding of [3H]-AQX-MN100 to wild-type SHIP1: binds to wild-type SHIP1
SMILES: Cc1cc(O)cc2c1[C@]1(C)CC[C@H]3C(C)(C)CCC[C@]3(C)[C@H]1C2 [AQX-MN100]
